This is an account of results in patent publication US20220323379A1, “P62 LIGAND COMPOUND AND ER-PHAGY-PROMOTING USE THEREOF” (PROTECH, INC., priority 2019, published 2022).

Experiment [1] has as its target T1, p62 (Homo sapiens, UniProt Q13501).
T1 construct: PCR amplification of a full-length human p62 cDNA fragment; expressed in transfected cells; unpurified lysate supernatant
As to the kind of experiment: In vitro p62 oligomerization assay. The settings on record: 2 h; for oligomerization and aggregation of p62: p62-ZZ ligands 1 mM, p62-myc/his cell lysate, FIG. 5B; for p62 oligomerization: dipeptide 50 mM, FIG. 2B. Type of experiment: biochemical. How it is done:
FIG. 2B illustrates the in vitro p62 oligomerization assay results in HEK293T cells cultured with Arg-Ala or Ala-Arg dipeptide (50 mM, 2 hours),
FIG. 5B illustrates the in vitro p62 oligomerization assay results in HEK293T cells incubated with the p62-ZZ ligands (1 mM, 2 h) illustrated in FIG. 5A,
HEK293 cells were transiently transfected with a plasmid encoding p62-myc/his fusion proteins (Reference Example 2), resuspended in a lysis buffer [50 mM Hepes (pH 7.4), 0.15 M KCl, 0.1% Nonidet P-40), 10% glycerol, and a mixture of protease inhibitors and phosphatase inhibitor (Abcam)] and lysed by 10 cycles of freezing and thawing, followed by centrifugation at 13,000×g for 20 min at 4° C. The protein concentration in the supernatant was determined using a BCA assay (Thermo Fisher Scientific). A total of 1 μg of protein was mixed with 50 mM of the Arg-Ala or Ala-Arg dipeptide (Anygen) or 1000 μM of p62-ZZ ligands in the presence of 100 μM bestatin (Enzo) at room temperature for 2 h. Next, a non-reducing 4×LDS sample buffer was added to each sample, heated at 95° C. for 10 min, and resolved using 4-20% gradient SDS-PAGE (Bio-Rad). Immunoblotting analysis was carried out to monitor the conversion of p62 monomers into oligomers or aggregates using an anti-myc antibody.

The subject of experiment [2] is HeLa cells. As to the kind of experiment: Immunocytochemistry co-localization analysis of ER markers (calnexin, KDEL) with p62 and LC3. The note with it: tannic acid 30 μM 24 h, HCQ 10 μM 24 h. Type of experiment: cell-based, human. How it is done: FIG. 2C is a fluorescence image illustrating the co-localization analysis results of p62 and calnexin in HeLa cells treated with HCQ (10 μM, 24 h), tannic acid (30 μM, 24 h) or both (scale bar, 10 μm),
FIG. 2E is a fluorescence image illustrating the co-localization analysis results of KDEL and LC3 in HeLa cells treated with HCQ (10 μM, 24 h), tannic acid (30 μM, 24 h) or both (scale bar, 10 μm),
FIG. 5C is a fluorescence image illustrating the co-localization analysis results of calnexin, p62 and LC3-GFP puncta structures in HeLa cells transfected with LC3-GFP and treated with YTK1105 (2.5 μM, 9 h) (scale bar, 10 μm),
FIG. 11E illustrates the co-localization analysis results of p62, KDEL and LC3-GFP in HeLa cells transiently transfected with LC3-GFP and treated with YTK1105 (2.5 μM, 5 h) (scale bar, 10 μm), […]
To observe cellular localization of proteins, cells were cultured on cover slips coated with poly-L-lysine (Sigma). […] Confocal images were taken by a laser scanning confocal microscope 510 Meta (Zeiss) and analyzed by Zeiss LSM Image Browser (ver. 4.2.0.121).
Quantification results are expressed as the mean+/−S.D. value of three independent test results. […] The P-values were determined using ANOVA with two-tailed student's t-test (degree of freedom=n−1) or Prism 6 software (GraphPad). The statistical significance was determined as values of p<0.05 (***p<0.001; **p<0.01; *p<0.05).

The test system of experiment [3] is HeLa cells. As to the kind of experiment: ER expansion visualization by KDEL immunostaining. Type of experiment: cell-based, human. The settings on record: tannic acid 30 μM 24 h with YTK1105 2.5 μM 5 h or rapamycin 2 μM 18 h, FIGS. 5H, 5I. How it is done:
FIG. 5H illustrates the immunostaining results of KDEL signals in HeLa cells treated with or without tannic acid (30 μM, 24 h) and with YTK1105 (2.5 μM, 5 h) or rapamycin (2 μM, 18 h) (scale bar, 10 μm),
To observe cellular localization of proteins, cells were cultured on cover slips coated with poly-L-lysine (Sigma). The cells were fixed with 4% paraformaldehyde in PBS (pH 7.4) for 15 min at room temperature and washed three times with PBS for 5 min. The cells were permeabilized with 0.5% Triton X-100 in PBS solution for 15 min and washed three times with PBS for 5 min. The cells were blocked with 2% BSA in PBS solution for 1 h at room temperature. After blocking, the cells were incubated overnight at 4° C. with a primary antibody diluted in 2% BSA/PBS solution. […] Confocal images were taken by a laser scanning confocal microscope 510 Meta (Zeiss) and analyzed by Zeiss LSM Image Browser (ver. 4.2.0.121).
Using confocal microscopy of cells analyzed by immunocytochemistry, ER expansion was visualized by considered when KDEL- or calnexin-labelled ER occupied more than 80% of cell area. Furthermore, the ER area was calculated by ImageJ (NIH, Bethesda, v1.52) and the background threshold was manually defined and set for all images. The ER area was calculated and marked from the total cell area as a fraction after borders of each cell were set.

In experiment [4] the target is T2, TRIM13-p62 complex (Homo sapiens, UniProt Q13501).
T2 construct: PCR amplification of a full-length human p62 cDNA fragment; expressed in transfected cells; host or cells: HEK293T
As to the kind of experiment: Co-IP with autophagy flux analysis using TRIM13 pulldown. Type of experiment: cell-based. The note with it: HEK293T p62-myc + TRIM13-flag, tannic acid 30 μM 24 h, FIG. 4I. How it is done: FIG. 4I illustrates the Co-IP assay results in HEK293T cells treated with HCQ (10 μM, 24 h), tannic acid (30 μM, 24 h), or both, and co-transfected (24 h) with p62-myc and TRIM13-flag,
FIG. 5K illustrates the Co-IP assay results in HEK293T cells co-transfected with p62-myc and TRIM13-flag (24 h) or transfected with negative control empty vector (EV) and treated with HCQ (10 μM, 24 h), YOK1104 (2.5 μM, 4 h), or both, and
To test protein interaction, co-immunoprecipitation assays were performed. For exogenous co-IP, HEK293T cells were transfected with recombinant p62, BiP, TRIM13, reticulophagy regulator 1 (FAM134B), reticulon 3 (RTN3) or ATZ (Z variant E342K) using Lipofectamine 2000. The cell pellets were scraped and pelleted by centrifugation, resuspended and lysed in an immunoprecipitation buffer (IP buffer) [50 mM Tris-HCl pH 7.5, 150 mM NaCl, 0.5% Triton X-100, 1 mM EDTA, 1 mM phenylmethylsulfonyl fluoride (PMSF; Roche) and protease inhibitor cocktail (Sigma)] on a rotor at 4° C. for 30 min. Next, the supernatant and remaining pellets were passed through a 26-gauge 1 mL syringe 15 times and centrifuged at 13,000 g at 4° C. and collected for the supernatant, to which normal mouse IgG (Santa Cruz) and Protein A/G-Plus agarose beads (Santa Cruz) were added to preclear the lysate on a rotor at 4° C. overnight. The cell lysate was then incubated with M2 FLAG-affinity Gel agarose beads (Sigma) on a rotor at 4° C. for 3 h. The gel beads were washed four times with IP buffer, resuspended in 2× Laemmli Sample Buffer, separated by SDS-PAGE and analyzed by immunoblotting with specified antibodies.

The subject of experiment [5] is TRIM13. The experiment can be described thus: In vivo oligomerization assay of TRIM13-flag (non-reducing SDS-PAGE). Format: cell-based, human. The settings on record: HEK293T TRIM13-flag, tannic acid 30 μM 24 h, HCQ 10 μM 24 h; FIGS. 4H, 9L. How it is done: FIG. 4H illustrates the in vivo oligomerization assay results of TRIM13-flag in HEK293T cells treated with HCQ (10 μM, 24 h), tannic acid (30 μM, 24 h), or both,
FIG. 5L illustrates the In vivo oligomerization assay results of TRIM13-flag in HEK293T cells treated with MG132 (2 μM, 24 h) and with or without YOK1104 (2.5 μM, 4 h).
HEK293T cells were transfected with TRIM13-flag using Lipofectamine 2000 and treated with hydroxychloroquine (Sigma) for 24 h. To lyse the cells, the cells were subjected to a cycle of freezing/thawing and centrifuged at 13,000 g for 10 min after 30 min incubation on ice for supernatant collection. Protein concentration was measured using the Pierce BCA Protein Assay Kit (Thermo Fisher Scientific). Next, a non-reducing 4×LDS sample buffer was added to the sample lysate and followed by boiling at 100° C. for 10 min. The samples were loaded on a 3% stacking and 8% separating SDS-PAGE. Immunoblotting assays were performed using an anti-Flag antibody (Sigma) to visualize the oligomeric complexes of TRIM13.

Experiment [6] has as its system TRIM13. The experiment can be described thus: Immunoblotting of ER protein in tannic acid-treated cells. Type of experiment: cell-based, human. The settings on record: HeLa, tannic acid 30 μM 24 h; FIG. 8E. How it is done: FIG. 8E illustrates the immunoblotting results of ER protein in HeLa cells treated with tannic acid (30 μM, 24 h),
Cell pellets were washed with phosphate-buffered saline (PBS) and lysed in an SDS-based sample buffer (277.8 mM Tris-HCl, pH 6.8, 4.4% LDS, 44.4% (v/v) glycerol) with beta-mercaptoethanol. Alternatively, cell pellets or protein supernatants were lysed in a 5× Laemmli sample buffer (SDS-based sample buffer). Using SDS-PAGE, whole cell lysates were separated and transferred onto polyvinylidene difluoride membranes at 100 V for 2 h at 4° C. Subsequently, the membrane was blocked with 4% skim milk in PBS solution for 30 min at room temperature and incubated overnight with primary antibodies (see Reference Example 4), followed by incubation with host-specific HRP-conjugated secondary antibodies (Jackson laboratory) (1:10000 dilution). For signal detection, a mixture of ECL solution (Thermo Fisher Scientific) was applied onto the membrane and captured using X-ray films.
For orientation: A western blot detects proteins with antibodies after separation by electrophoresis.

In the case of `O=Cc1ccc(OCc2ccccc2)c(OCc2ccccc2)c1` [compound 1101, 3,4-bis(benzyloxy)benzaldehyde], in experiment [1], the “oligomerization and aggregation of p62” value is given as “negative controls”.
Regarding Ala-Arg, in experiment [1], the p62 oligomerization entry is reported as “did not induce p62 oligomerization”.
As to `O=C(OC[C@H]1O[C@@H](OC(=O)c2cc(O)c(O)c(OC(=O)c3cc(O)c(O)c(O)c3)c2)[C@H](OC(=O)c2cc(O)c(O)c(OC(=O)c3cc(O)c(O)c(O)c3)c2)[C@@H](OC(=O)c2cc(O)c(O)c(OC(=O)c3cc(O)c(O)c(O)c3)c2)[C@@H]1OC(=O)c1cc(O)c(O)c(OC(=O)c2cc(O)c(O)c(O)c2)c1)c1cc(O)c(O)c(OC(=O)c2cc(O)c(O)c(O)c2)c1` [tannic acid], the “localization of p62 puncta to calnexin signals (targeting of p62 to the ER)” value in experiment [2] (FIGS. 2C, 2D) was “p62 punctate signals were delocalized from calnexin signals”. The “autophagic targeting of KDEL+ proteins (KDEL-LC3 co-localization)” value in experiment [2] (FIGS. 2E, 2F) is “abolished”. For the same molecule, the “ER morphology (swelling), KDEL signals” value in experiment [3] is reported as “the ER spontaneously swelled into abnormal morphology”. The “turnover of TRIM13 and its complex with p62” value in experiment [4] (HCQ 10 μM 24 h) was “became metabolically stabilized”. For the same molecule, the “binding of p62 to TRIM13” value in experiment [4] is “p62 normally bound to TRIM13”. In addition, in experiment [5], the “oligomeric status of TRIM13” value is reported as “TRIM13 lost its oligomeric status, leading to the uncontrolled formation of aggregates”. For the same molecule, the “TRIM13 protein level (autophagic degradation)” value in experiment [6] is recorded as “stabilized”.
`COC(=O)CNC[C@@H](O)COc1ccc(OCc2ccccc2)c(OCc2ccccc2)c1` [YOK-G-1104, methyl (R)-(3-(3,4-bis(benzyloxy)phenoxy)-2-hydroxypropyl)glycinate]: in experiment [1], the “oligomerization and aggregation of p62” value is “negative controls”.
Turning to Arg-Ala, in experiment [1], the p62 oligomerization result is given as “induced p62 oligomerization”.
